Data published in ChEMBL document CHEMBL5291721, “A preclinical secondary pharmacology resource illuminates target-adverse drug reaction associations of marketed drugs” (Nat Commun, 2023).

How the values were obtained:
[1] = molecular target: Vascular endothelial growth factor receptor 2 (Homo sapiens, UniProt P35968); format: functional
[2] = molecular target: T1, Amine oxidase [flavin-containing] A (Homo sapiens, UniProt P21397); format: functional
T1 sequence (P21397 whole entry): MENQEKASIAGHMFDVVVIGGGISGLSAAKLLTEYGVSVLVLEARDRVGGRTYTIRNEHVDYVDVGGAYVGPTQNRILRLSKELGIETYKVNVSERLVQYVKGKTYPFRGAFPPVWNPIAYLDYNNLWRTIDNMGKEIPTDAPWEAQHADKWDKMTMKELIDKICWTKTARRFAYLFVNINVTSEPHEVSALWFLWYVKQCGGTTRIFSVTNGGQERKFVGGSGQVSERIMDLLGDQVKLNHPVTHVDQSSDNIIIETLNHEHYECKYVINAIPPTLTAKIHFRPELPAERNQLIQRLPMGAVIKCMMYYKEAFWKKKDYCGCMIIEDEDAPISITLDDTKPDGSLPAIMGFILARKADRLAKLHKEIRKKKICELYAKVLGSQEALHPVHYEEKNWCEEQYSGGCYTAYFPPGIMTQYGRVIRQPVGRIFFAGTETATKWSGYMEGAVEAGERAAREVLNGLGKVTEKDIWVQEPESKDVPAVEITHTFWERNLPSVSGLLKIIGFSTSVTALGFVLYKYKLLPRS

[3] = molecular target: 5-hydroxytryptamine receptor 2B (Homo sapiens, UniProt P41595); format: functional, cell-based
[4] = molecular target: T2, Alpha-2C adrenergic receptor (Homo sapiens, UniProt P18825); format: functional
T2 sequence (P18825 whole entry): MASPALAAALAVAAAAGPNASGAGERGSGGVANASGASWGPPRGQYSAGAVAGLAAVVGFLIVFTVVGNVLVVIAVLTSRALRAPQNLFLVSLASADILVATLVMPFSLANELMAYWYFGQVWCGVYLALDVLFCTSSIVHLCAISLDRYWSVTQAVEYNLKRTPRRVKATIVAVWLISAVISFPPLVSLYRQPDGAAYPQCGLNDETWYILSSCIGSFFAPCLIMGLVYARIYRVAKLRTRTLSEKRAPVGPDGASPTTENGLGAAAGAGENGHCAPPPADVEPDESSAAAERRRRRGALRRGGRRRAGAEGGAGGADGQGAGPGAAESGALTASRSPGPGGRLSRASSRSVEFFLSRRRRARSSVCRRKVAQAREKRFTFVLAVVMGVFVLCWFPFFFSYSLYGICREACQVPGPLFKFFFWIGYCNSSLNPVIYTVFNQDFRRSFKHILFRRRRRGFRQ

[5] = molecular target: Gamma-aminobutyric acid receptor subunit alpha-1 (Rattus norvegicus, UniProt P62813); format: functional
[6] = molecular target: Kappa-type opioid receptor (Homo sapiens, UniProt P41145)
[7] = molecular target: Adenosine receptor A2a (Homo sapiens, UniProt P29274)
[8] = molecular target: T3, 5-hydroxytryptamine receptor 1A (Homo sapiens, UniProt P08908); format: functional, cell-based
T3 sequence (P08908 whole entry): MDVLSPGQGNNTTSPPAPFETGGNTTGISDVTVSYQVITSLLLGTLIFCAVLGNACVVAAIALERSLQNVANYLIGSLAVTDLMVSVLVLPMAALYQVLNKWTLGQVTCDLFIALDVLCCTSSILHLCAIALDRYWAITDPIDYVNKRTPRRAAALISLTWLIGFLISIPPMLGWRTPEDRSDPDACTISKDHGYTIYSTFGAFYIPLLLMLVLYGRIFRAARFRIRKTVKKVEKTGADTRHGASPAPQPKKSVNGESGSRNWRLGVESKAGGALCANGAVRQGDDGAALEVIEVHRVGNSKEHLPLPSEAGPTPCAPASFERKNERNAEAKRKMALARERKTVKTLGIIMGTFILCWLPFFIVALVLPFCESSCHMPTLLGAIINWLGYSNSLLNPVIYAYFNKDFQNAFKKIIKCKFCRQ

[9] = molecular target: Sodium-dependent noradrenaline transporter (Homo sapiens, UniProt P23975)
[10] = molecular target: cGMP-inhibited 3',5'-cyclic phosphodiesterase 3A (Homo sapiens, UniProt Q14432); format: functional
[11] = molecular target: Cannabinoid receptor 1 (Homo sapiens, UniProt P21554); format: functional, cell-based
[12] = molecular target: Sodium-dependent dopamine transporter (Homo sapiens, UniProt Q01959)
[13] = molecular target: Histamine H2 receptor (Homo sapiens, UniProt P25021); format: functional, cell-based
[14] = molecular target: T4, Alpha-2B adrenergic receptor (Homo sapiens, UniProt P18089)
T4 sequence (P18089 whole entry): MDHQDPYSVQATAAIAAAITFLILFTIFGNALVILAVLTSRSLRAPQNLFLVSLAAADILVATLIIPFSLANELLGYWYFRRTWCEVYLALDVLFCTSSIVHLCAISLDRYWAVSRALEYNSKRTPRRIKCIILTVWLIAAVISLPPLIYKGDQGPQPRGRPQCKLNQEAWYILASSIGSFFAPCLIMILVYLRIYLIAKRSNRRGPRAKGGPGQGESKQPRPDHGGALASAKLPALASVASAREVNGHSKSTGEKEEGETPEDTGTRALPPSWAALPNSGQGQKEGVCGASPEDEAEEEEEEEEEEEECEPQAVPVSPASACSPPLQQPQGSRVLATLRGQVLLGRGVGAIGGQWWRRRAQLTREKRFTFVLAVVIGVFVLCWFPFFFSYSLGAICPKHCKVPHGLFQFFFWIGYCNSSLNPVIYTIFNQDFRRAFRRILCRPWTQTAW
Note: assay procedure not described here.

Sequence of 5-hydroxytryptamine receptor 2B (P41595 whole entry): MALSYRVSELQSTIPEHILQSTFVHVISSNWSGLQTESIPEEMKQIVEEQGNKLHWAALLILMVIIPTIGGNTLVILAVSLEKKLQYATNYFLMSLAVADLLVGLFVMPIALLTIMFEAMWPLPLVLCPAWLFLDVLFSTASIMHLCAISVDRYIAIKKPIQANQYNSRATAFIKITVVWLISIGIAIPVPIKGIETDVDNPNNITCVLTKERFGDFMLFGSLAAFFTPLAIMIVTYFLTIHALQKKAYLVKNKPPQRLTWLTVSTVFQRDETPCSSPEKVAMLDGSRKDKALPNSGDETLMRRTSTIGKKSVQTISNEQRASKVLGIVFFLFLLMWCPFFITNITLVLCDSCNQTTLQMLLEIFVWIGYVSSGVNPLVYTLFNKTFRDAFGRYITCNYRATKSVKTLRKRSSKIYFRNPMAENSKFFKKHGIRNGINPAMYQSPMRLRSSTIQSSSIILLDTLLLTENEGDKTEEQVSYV
Sequence of Sodium-dependent noradrenaline transporter (P23975 whole entry): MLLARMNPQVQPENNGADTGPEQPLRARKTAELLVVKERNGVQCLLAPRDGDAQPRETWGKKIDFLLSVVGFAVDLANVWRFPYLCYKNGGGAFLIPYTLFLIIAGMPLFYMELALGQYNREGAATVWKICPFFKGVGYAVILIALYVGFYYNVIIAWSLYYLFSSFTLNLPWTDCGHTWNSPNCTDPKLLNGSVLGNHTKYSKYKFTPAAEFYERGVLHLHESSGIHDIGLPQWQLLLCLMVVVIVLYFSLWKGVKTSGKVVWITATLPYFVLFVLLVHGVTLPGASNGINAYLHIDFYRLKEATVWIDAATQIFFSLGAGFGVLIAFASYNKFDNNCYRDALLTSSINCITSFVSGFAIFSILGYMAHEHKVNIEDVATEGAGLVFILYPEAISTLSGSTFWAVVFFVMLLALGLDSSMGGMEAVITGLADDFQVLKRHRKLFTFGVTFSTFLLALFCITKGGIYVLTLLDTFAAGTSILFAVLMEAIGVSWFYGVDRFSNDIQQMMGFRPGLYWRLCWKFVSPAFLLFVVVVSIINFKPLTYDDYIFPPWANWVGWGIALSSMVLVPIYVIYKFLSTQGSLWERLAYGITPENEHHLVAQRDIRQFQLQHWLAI
Sequence of Vascular endothelial growth factor receptor 2 (P35968 whole entry): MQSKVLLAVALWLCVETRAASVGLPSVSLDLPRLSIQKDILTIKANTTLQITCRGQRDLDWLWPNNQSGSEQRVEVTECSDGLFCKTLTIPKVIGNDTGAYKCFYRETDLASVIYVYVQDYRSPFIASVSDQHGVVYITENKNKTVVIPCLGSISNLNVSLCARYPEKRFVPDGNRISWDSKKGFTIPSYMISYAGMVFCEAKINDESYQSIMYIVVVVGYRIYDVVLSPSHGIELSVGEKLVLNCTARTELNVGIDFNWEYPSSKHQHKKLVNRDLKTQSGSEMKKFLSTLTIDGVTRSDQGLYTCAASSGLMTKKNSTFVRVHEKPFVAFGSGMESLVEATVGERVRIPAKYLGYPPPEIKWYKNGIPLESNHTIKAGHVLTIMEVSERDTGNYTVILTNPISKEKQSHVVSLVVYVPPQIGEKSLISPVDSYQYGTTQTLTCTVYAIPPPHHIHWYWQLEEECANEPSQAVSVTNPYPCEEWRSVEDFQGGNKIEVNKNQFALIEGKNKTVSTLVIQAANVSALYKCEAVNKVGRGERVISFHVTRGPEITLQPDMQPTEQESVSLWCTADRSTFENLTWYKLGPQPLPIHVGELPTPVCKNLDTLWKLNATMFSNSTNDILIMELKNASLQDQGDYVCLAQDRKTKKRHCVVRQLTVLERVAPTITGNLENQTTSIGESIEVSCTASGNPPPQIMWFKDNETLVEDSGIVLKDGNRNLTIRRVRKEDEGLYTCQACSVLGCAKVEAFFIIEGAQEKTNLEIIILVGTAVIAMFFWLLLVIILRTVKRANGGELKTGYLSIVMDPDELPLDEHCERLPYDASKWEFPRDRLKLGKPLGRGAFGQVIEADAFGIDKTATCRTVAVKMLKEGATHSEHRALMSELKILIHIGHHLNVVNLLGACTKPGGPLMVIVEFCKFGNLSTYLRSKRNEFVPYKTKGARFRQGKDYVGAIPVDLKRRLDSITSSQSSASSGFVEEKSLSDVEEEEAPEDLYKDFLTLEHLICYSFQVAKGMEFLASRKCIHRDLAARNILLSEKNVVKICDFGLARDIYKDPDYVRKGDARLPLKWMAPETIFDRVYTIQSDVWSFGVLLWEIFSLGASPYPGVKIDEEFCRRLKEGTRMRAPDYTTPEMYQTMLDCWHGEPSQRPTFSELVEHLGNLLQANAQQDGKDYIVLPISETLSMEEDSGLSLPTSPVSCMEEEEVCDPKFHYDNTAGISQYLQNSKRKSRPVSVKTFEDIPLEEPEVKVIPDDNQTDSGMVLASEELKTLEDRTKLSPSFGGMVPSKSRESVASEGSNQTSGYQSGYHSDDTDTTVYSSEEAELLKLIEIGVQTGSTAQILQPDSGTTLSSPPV
Sequence of cGMP-inhibited 3',5'-cyclic phosphodiesterase 3A (Q14432 whole entry): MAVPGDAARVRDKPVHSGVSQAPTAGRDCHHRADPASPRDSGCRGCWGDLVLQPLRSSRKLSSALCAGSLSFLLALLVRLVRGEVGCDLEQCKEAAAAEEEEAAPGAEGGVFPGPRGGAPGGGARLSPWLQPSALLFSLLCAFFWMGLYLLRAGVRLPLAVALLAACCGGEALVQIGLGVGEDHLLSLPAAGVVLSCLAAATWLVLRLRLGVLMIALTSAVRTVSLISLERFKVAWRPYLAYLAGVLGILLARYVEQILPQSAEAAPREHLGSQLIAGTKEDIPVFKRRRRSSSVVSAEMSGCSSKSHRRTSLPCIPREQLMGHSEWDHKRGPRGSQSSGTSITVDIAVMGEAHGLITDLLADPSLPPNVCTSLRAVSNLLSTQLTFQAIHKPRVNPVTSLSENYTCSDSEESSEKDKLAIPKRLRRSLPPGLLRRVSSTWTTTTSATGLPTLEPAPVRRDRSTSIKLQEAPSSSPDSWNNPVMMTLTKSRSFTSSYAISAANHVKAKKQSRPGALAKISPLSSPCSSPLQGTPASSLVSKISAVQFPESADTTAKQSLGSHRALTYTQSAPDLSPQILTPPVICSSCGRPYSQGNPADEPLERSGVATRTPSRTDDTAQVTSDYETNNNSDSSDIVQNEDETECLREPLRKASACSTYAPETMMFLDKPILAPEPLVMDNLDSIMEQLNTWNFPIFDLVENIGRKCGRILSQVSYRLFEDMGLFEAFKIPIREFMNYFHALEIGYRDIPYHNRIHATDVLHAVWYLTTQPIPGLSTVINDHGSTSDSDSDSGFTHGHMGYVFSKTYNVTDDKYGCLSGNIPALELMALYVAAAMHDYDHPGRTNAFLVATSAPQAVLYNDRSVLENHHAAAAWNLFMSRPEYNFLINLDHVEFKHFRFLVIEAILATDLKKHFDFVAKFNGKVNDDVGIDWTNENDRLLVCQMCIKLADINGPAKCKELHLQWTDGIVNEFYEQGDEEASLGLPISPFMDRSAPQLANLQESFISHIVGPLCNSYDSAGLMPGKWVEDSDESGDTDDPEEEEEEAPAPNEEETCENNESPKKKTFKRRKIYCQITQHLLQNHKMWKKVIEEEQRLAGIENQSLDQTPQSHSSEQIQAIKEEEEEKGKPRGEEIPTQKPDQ
Sequence of Adenosine receptor A2a (P29274 whole entry): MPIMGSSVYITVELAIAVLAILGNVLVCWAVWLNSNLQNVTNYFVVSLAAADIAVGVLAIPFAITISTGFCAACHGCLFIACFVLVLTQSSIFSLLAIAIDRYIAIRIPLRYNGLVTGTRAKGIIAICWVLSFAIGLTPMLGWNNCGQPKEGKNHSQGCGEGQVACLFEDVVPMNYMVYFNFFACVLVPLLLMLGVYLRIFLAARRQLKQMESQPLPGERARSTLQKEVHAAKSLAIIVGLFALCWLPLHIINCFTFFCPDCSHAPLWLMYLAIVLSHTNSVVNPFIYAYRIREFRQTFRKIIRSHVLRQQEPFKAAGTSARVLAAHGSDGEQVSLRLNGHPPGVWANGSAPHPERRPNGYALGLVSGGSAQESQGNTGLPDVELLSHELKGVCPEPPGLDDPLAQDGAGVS
Sequence of Histamine H2 receptor (P25021 whole entry): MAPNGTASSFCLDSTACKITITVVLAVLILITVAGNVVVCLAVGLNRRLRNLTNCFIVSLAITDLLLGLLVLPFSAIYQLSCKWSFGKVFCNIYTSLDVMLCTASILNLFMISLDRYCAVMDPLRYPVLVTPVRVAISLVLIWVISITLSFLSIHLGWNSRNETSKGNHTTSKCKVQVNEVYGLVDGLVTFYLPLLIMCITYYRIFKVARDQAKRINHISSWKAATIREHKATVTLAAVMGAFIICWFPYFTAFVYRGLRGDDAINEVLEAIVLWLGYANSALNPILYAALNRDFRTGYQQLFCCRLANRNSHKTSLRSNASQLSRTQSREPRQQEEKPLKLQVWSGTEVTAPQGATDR
Sequence of Gamma-aminobutyric acid receptor subunit alpha-1 (P62813 whole entry): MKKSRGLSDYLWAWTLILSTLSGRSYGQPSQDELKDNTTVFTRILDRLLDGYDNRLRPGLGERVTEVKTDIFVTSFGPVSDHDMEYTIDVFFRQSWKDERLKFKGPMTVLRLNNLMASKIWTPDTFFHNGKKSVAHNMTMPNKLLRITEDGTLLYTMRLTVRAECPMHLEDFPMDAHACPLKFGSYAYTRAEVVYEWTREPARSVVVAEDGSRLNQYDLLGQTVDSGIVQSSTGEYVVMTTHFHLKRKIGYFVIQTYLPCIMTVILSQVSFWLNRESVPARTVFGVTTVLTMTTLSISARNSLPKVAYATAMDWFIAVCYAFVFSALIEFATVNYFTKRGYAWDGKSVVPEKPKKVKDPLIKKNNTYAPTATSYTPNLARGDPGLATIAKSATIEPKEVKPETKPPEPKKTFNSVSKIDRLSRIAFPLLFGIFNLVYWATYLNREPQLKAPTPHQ

Compound: CCOc1ccc(/C=C2\NCCc3cc(OCC)c(OCC)cc32)cc1OCC [DROTAVERINE]
- AC50 [1]: > 30 µM

Compound: CC1=NN(c2ccccc2)C(=O)C1 [EDARAVONE]
- AC50 [1]: > 30 µM

Compound: CCOC(=O)C(c1c(O)c2ccccc2oc1=O)c1c(O)c2ccccc2oc1=O [ETHYL BISCOUMACETATE]
- AC50 [1]: > 30 µM

Compound: C=C1C[C@@H]2[C@H](CC[C@]3(C)C(=O)CC[C@@H]23)[C@@]2(C)C=CC(=O)C=C12 [EXEMESTANE]
- AC50 [2]: > 10 µM
- AC50 [3]: 36 µM
- AC50 [4]: > 10 µM
- AC50 [5]: > 10 µM
- AC50 [6]: 2.41 µM
- AC50 [7]: > 30 µM
- AC50 [8]: > 10 µM
- AC50 [9]: > 30 µM
- AC50 [10]: > 30 µM
- AC50 [11]: > 30 µM
- AC50 [12]: > 30 µM
- AC50 [13]: > 10 µM
- AC50 [14]: > 10 µM

Compound: Cc1nc(-c2ccc(OCC(C)C)c(C#N)c2)sc1C(=O)O [FEBUXOSTAT]
- AC50 [1]: > 30 µM

Compound: O=C1NCC2(CCN(CCc3ccccc3)CC2)O1 [FENSPIRIDE]
- AC50 [1]: > 30 µM

Compound: C[C@@H]1C[C@H]2[C@@H]3C[C@H](F)C4=CC(=O)C=C[C@]4(C)[C@@]3(F)[C@@H](O)C[C@]2(C)[C@@]1(O)C(=O)COC(=O)C(C)(C)C [FLUMETHASONE PIVALATE]
- AC50 [1]: > 30 µM

Compound: C[C@@H]1C[C@H]2[C@@H]3C[C@H](F)C4=CC(=O)C(Cl)=C[C@]4(C)[C@@]3(F)[C@@H](O)C[C@]2(C)[C@@]1(O)C(=O)CO [HALOMETASONE]
- AC50 [1]: > 30 µM

Compound: CC(C)Cc1ccc(C(C)C(=O)NO)cc1 (configuration not stated) [IBUPROXAM]
- AC50 [1]: > 30 µM

Compound: CC/C=C\C/C=C\C/C=C\C/C=C\C/C=C\CCCC(=O)O [ICOSAPENT]
- AC50 [1]: > 30 µM

Compound: CC(C(O)c1ccc(O)cc1)N1CCC(Cc2ccccc2)CC1 (configuration not stated) [IFENPRODIL]
- AC50 [2]: > 30 µM
- AC50 [3]: 2.3 µM
- AC50 [4]: 0.89 µM
- AC50 [5]: > 30 µM
- AC50 [6]: 1 µM
- AC50 [7]: > 30 µM
- AC50 [8]: 1.3 µM
- AC50 [9]: 2.5 µM
- AC50 [10]: > 30 µM
- AC50 [11]: > 30 µM
- AC50 [12]: 1.2 µM
- AC50 [13]: > 30 µM
- AC50 [14]: 0.44 µM

Compound: Oc1c(I)cc(I)c2cccnc12 [IODOQUINOL]
- AC50 [1]: > 30 µM

Compound: CC(=O)N(CC(O)CO)c1c(I)c(C(=O)NCC(O)CO)c(I)c(C(=O)NCC(O)CO)c1I (configuration not stated) [IOHEXOL]
- AC50 [2]: > 10 µM
- AC50 [3]: > 10 µM
- AC50 [4]: > 10 µM
- AC50 [5]: > 10 µM
- AC50 [6]: > 10 µM
- AC50 [7]: > 30 µM
- AC50 [8]: > 10 µM
- AC50 [9]: > 30 µM
- AC50 [10]: > 30 µM
- AC50 [11]: > 30 µM
- AC50 [12]: > 30 µM
- AC50 [13]: > 10 µM
- AC50 [14]: > 10 µM

Compound: CCC(Cc1c(I)cc(I)c(N)c1I)C(=O)O (configuration not stated) [IOPANOIC ACID]
- AC50 [1]: > 30 µM

Compound: O=C(NC1CCN(CCCCC2(C(=O)NCC(F)(F)F)c3ccccc3-c3ccccc32)CC1)c1ccccc1-c1ccc(C(F)(F)F)cc1 [LOMITAPIDE]
- AC50 [1]: > 30 µM

Compound: CN(C/C=C/c1ccccc1)Cc1cccc2ccccc12 [NAFTIFINE]
- AC50 [2]: > 10 µM
- AC50 [3]: > 10 µM
- AC50 [4]: 4.8 µM
- AC50 [5]: > 10 µM
- AC50 [6]: 10.6 µM
- AC50 [7]: > 30 µM
- AC50 [8]: > 10 µM
- AC50 [9]: 11.1 µM
- AC50 [10]: > 30 µM
- AC50 [11]: > 30 µM
- AC50 [12]: 17.3 µM
- AC50 [13]: > 10 µM
- AC50 [14]: > 10 µM

Compound: CC(C)NCC1CCc2cc(CO)c([N+](=O)[O-])cc2N1 (configuration not stated) [OXAMNIQUINE]
- AC50 [2]: > 10 µM
- AC50 [3]: 26 µM
- AC50 [4]: > 10 µM
- AC50 [5]: > 10 µM
- AC50 [6]: 13.4 µM
- AC50 [7]: > 10 µM
- AC50 [8]: > 30 µM
- AC50 [9]: > 30 µM
- AC50 [10]: > 30 µM
- AC50 [11]: > 30 µM
- AC50 [12]: > 30 µM
- AC50 [13]: > 10 µM
- AC50 [14]: > 10 µM
